{"source": "patent US5712109A", "about": "“Antifungal agent produced by arthrinium arundinis ATCC 74359” (Merck & Co., Inc., priority 1997, dated 1998)", "assay_type_in_all_cases": "cell-based", "key": {"[1]": {"test_system": "Candida albicans (MY1055)", "assay": "broth microdilution antifungal assay, Candida albicans MY1055", "protocol": "(§1) In the microbroth dilution assay, microorganisms were selected by streaking a yeast culture on Sabouraud dextrose agar (SDA) and incubating for 24-48 hours at 35°-37° C. Three to five characteristic colonies were selected and transferred to a fresh plate and incubated under similar conditions. From the regrowth, 3 to 5 colonies were selected and suspended in 10 milliliters of YM broth (Difco) and incubated for 4 hours at 35°-37° C. shaking at 225 rpm. The 4 hour broth cultures were adjusted optically to 86% transmission resulting in a concentration of 1-5×10^6 cfu/ml which was further diluted 1:100 in YNBD (yeast nitrogen base with 1% dextrose) to obtain a concentration of 1-5×10^4 cfu/ml for use as inocula. […]\n(§2) The plates containing the diluted compounds were then inoculated with 75 μl/well of the appropriate microorganism and incubated for 48 hours at 35°-37° C. with MIC (minimum inhibitory concentration) determinations carded out after 24 hours of incubation (except Cryptococcus strains which are read at 48 hours). […]\n(§3) After recording M/Cs at 24 hours, the microtiter plates were shaken gently to resuspend the cells. […] For Cryptococcus neoformans, SDA plates were inoculated at 48 hours after recording MICs and incubated 48 hours before reading the MFG. […]"}, "[2]": {"test_system": "Candida glabrata (MY1381)", "assay": "broth microdilution antifungal assay, Candida glabrata MY1381", "conditions": "Nakaseomyces glabratus", "protocol": "as §1, §2, §3"}, "[3]": {"test_system": "Candida parapsilosis (MY1010)", "assay": "broth microdilution antifungal assay, Candida parapsilosis MY1010", "conditions": "Lodderomyces parapsilosis", "protocol": "as §1, §2, §3"}, "[4]": {"test_system": "Candida pseudotropicalis (MY2099)", "assay": "broth microdilution antifungal assay, Candida pseudotropicalis MY2099", "conditions": "Kluyveromyces marxianus", "protocol": "as §1, §2, §3"}, "[5]": {"test_system": "Candida tropicalis (MY1124)", "assay": "broth microdilution antifungal assay, Candida tropicalis MY1124", "protocol": "as §1, §2, §3"}, "[6]": {"test_system": "Candida albicans (CLY539)", "assay": "broth microdilution antifungal assay, Candida albicans CLY539", "protocol": "as §1, §2, §3"}, "[7]": {"test_system": "Candida albicans (CA2)", "assay": "broth microdilution antifungal assay, Candida albicans CA2", "protocol": "as §1, §2, §3"}, "[8]": {"test_system": "Candida tropicalis (MY1012)", "assay": "broth microdilution antifungal assay, Candida tropicalis MY1012", "protocol": "as §1, §2, §3"}, "[9]": {"test_system": "Candida guillermondii (MY1019)", "assay": "broth microdilution antifungal assay, Candida guillermondii MY1019", "protocol": "as §1, §2, §3"}, "[10]": {"test_system": "Candida krusei", "assay": "broth microdilution antifungal assay, Candida krusei", "conditions": "Pichia kudriavzevii", "protocol": "as §1, §2, §3"}, "[11]": {"test_system": "Cryptococcus neoformans (MY2061)", "assay": "broth microdilution antifungal assay, Cryptococcus neoformans MY2061", "protocol": "(§4) In the microbroth dilution assay, microorganisms were selected by streaking a yeast culture on Sabouraud dextrose agar (SDA) and incubating for 24-48 hours at 35°-37° C. Three to five characteristic colonies were selected and transferred to a fresh plate and incubated under similar conditions. From the regrowth, 3 to 5 colonies were selected and suspended in 10 milliliters of YM broth (Difco) and incubated for 4 hours at 35°-37° C. shaking at 225 rpm. The 4 hour broth cultures were adjusted optically to 86% transmission resulting in a concentration of 1-5×10^6 cfu/ml which was further diluted 1:100 in YNBD (yeast nitrogen base with 1% dextrose) to obtain a concentration of 1-5×10^4 cfu/ml for use as inocula.\n(§5) The test compound was dissolved at 256 μg/ml in 10% DMSO and diluted 2× into the first well to achieve a concentration of 256 μg/ml at 5% DMSO in the first well. Compounds are subsequently serially diluted 2× and cell suspension is added to each well resulting in an additional 2× dilution of compound. 75 μl of said solution is delivered to each well in colunto 1 of a 96-well, U-bottomed plate. […]\nas §3"}, "[12]": {"test_system": "Cryptococcus neoformans (MY2062)", "assay": "broth microdilution antifungal assay, Cryptococcus neoformans MY2062", "protocol": "as §4, §5, §3"}, "[13]": {"test_system": "Saccharomyces cerevisiae (MY2140)", "assay": "broth microdilution antifungal assay, Saccharomyces cerevisiae MY2140", "protocol": "as §1, §2, §3"}, "[14]": {"test_system": "Aspergillus fumigatus (MY4839)", "assay": "broth microdilution antifungal assay, Aspergillus fumigatus MY4839", "protocol": "as §1, §2\n(§6) No MFC values are indicated for Aspergillus furnigatus since colony counts are unreliable with filamentous species. […] The MEC is scored macroscopically by direct observation of the plate wells after 24 hours and reflects microscopic alterations in cell morphology (Kurtz et al, AAC 1994 38:1480-1489)."}, "[15]": {"test_system": "Aspergillus fumigatus (MY5668)", "assay": "broth microdilution antifungal assay, Aspergillus fumigatus MY5668", "protocol": "as §1, §2, §6"}, "[16]": {"test_system": "panel of fungi", "assay": "broth microdilution antifungal assay, panel of fungi, comparison with amphotericin B", "conditions": "MIC/MFC broth microdilution assay", "protocol": "In the microbroth dilution assay, microorganisms were selected by streaking a yeast culture on Sabouraud dextrose agar (SDA) and incubating for 24-48 hours at 35°-37° C. Three to five characteristic colonies were selected and transferred to a fresh plate and incubated under similar conditions. From the regrowth, 3 to 5 colonies were selected and suspended in 10 milliliters of YM broth (Difco) and incubated for 4 hours at 35°-37° C. shaking at 225 rpm. […]\nas §2, §3, §6"}, "[17]": {"test_system": "filamentous fungi", "assay": "agar plate inhibition zone test against filamentous fungi", "conditions": "agar plates, 28° C. or 37° C., 24 hours", "protocol": "The compound is also useful for inhibiting the growth of filamentous fungi. Such use may be illustrated in the following tests with Aspergillus flavus, Fusarium oxysporum, Ustilago zeae and the like. Inocula for filamentous fungi are prepared by scraping the surface of stock plates maintained on potato dextrose agar with a moistened sterile dacron swab. The spores and mycelia are then suspended in 10 milliliters of sterile potato dextrose broth and adjusted to 70 percent transmission at 660 nm. The samples to be tested for production of antifungal agent are applied directly to the agar plates as methanol solutions. When the sample to be tested is crude broth, it may be centrifuged prior to application. The assay plates are then incubated at either 28° C. or 37° C. for 24 hours. Following incubation, the inhibition zones are measured. Effects on growth are also noted as to appearance."}, "[18]": {"conditions": "24 hours, 35°-37° C., read-out: Minimum Inhibitory Concentration (MIC)"}, "[19]": {"conditions": "no growth or growth of ≤4 colonies on SDA, read-out: Minimum Fungicidal Concentration (MFC)"}, "[20]": {"conditions": "SDA incubated 48 hours, no growth or growth of ≤4 colonies, read-out: Minimum Fungicidal Concentration (MFC)"}, "[21]": {"conditions": "read at 48 hours, 35°-37° C., read-out: Minimum Inhibitory Concentration (MIC)"}, "[22]": {"conditions": "severe morphological change, scored macroscopically after 24 hours, read-out: Minimum Effective Concentration (MEC)"}}}
{"smiles": "CC(CCC(O)C(C)(O)CO)C1(O)CCC2(C)C3=C(CCC21C)C1(C)CCC(OC(=O)CCC(=O)O)C(C)(C)C1CC3", "note": "(centres unmarked) [Compound I]", "values": [{"measurement": "MIC", "setting": "[1]; [18]", "result": 4, "unit": "µg/mL"}, {"measurement": "MFC", "setting": "[1]; [19]", "result": 4, "unit": "µg/mL"}, {"measurement": "MIC", "setting": "[2]; [18]", "result": 2, "unit": "µg/mL"}, {"measurement": "MFC", "setting": "[2]; [19]", "result": 1, "unit": "µg/mL"}, {"measurement": "MIC", "setting": "[3]; [18]", "result": 4, "unit": "µg/mL"}, {"measurement": "MFC", "setting": "[3]; [19]", "result": 2, "unit": "µg/mL"}, {"measurement": "MIC", "setting": "[4]; [18]", "result": 8, "unit": "µg/mL"}, {"measurement": "MFC", "setting": "[4]; [19]", "result": 8, "unit": "µg/mL"}, {"measurement": "MIC", "setting": "[5]; [18]", "result": 8, "unit": "µg/mL"}, {"measurement": "MFC", "setting": "[5]; [19]", "result": 8, "unit": "µg/mL"}, {"measurement": "MIC", "setting": "[6]; [18]", "result": 2, "unit": "µg/mL"}, {"measurement": "MFC", "setting": "[6]; [19]", "result": 2, "unit": "µg/mL"}, {"measurement": "MIC", "setting": "[7]; [18]", "result": 16, "unit": "µg/mL"}, {"measurement": "MFC", "setting": "[7]; [19]", "result": 16, "unit": "µg/mL"}, {"measurement": "MIC", "setting": "[8]; [18]", "result": 16, "unit": "µg/mL"}, {"measurement": "MFC", "setting": "[8]; [19]", "result": 16, "unit": "µg/mL"}, {"measurement": "MIC", "setting": "[9]; [18]", "result": 64, "unit": "µg/mL"}, {"measurement": "MFC", "setting": "[9]; [19]", "result": 64, "unit": "µg/mL"}, {"measurement": "MIC", "setting": "[10]; [18]", "result": 4, "unit": "µg/mL"}, {"measurement": "MFC", "setting": "[10]; [19]", "result": 2, "unit": "µg/mL"}, {"measurement": "MFC", "setting": "[11]; [20]", "result": 32, "unit": "µg/mL"}, {"measurement": "MIC", "setting": "[11]; [21]", "result": "> 64", "unit": "µg/mL"}, {"measurement": "MFC", "setting": "[12]; [20]", "result": 64, "unit": "µg/mL"}, {"measurement": "MIC", "setting": "[12]; [21]", "result": 32, "unit": "µg/mL"}, {"measurement": "MIC", "setting": "[13]; [18]", "result": 8, "unit": "µg/mL"}, {"measurement": "MFC", "setting": "[13]; [19]", "result": 8, "unit": "µg/mL"}, {"measurement": "MIC", "setting": "[14]; [18]", "result": "> 64", "unit": "µg/mL"}, {"measurement": "minimal effective concentration", "setting": "[14]; [22]", "result": 0.5, "unit": "µg/mL"}, {"measurement": "MIC", "setting": "[15]; [18]", "result": 64, "unit": "µg/mL"}, {"measurement": "minimal effective concentration", "setting": "[15]; [22]", "result": 1, "unit": "µg/mL"}, {"measurement": "effectiveness against a panel of fungi relative to amphotericin B", "setting": "[16]", "result": "at concentrations comparable to an established antifungal agent, amphotericin B"}, {"measurement": "inhibition of growth of the fungal organisms (inhibition zones)", "setting": "[17]", "result": "effectively inhibit growth of the fungal organisms"}]}
